The values that follow are results of earlier work, collected in patent publication US8372823B2, “Tetracyclic inhibitors of fatty acid amide hydrolase” (The Scripps Research Institute, priority 2007, dated 2013).

The conditions of data set [1]: rat; cited from earlier work.
In data set [2] the target is T1, FAAH (Homo sapiens, UniProt O00519).
T1 sequence (O00519 1-579): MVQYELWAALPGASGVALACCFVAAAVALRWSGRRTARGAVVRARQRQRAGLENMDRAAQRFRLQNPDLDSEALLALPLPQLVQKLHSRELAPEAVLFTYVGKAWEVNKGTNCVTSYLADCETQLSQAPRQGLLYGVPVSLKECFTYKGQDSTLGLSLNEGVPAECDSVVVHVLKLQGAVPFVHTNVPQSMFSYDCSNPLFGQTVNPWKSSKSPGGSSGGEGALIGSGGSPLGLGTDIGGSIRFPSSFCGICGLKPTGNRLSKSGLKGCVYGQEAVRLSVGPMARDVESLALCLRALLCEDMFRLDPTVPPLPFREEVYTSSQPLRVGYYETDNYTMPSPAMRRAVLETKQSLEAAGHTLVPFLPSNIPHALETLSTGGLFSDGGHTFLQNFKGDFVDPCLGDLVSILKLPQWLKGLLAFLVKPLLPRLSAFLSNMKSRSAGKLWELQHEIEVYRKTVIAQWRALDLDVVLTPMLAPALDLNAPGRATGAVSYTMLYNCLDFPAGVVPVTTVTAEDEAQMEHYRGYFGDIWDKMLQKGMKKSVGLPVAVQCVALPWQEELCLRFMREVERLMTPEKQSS
Particulars: cited from earlier work.

The conditions of data set [3]: rats; cited from earlier work.
The conditions of data set [4]: rats; cited from earlier work. The source holds these as a separate data set.
The conditions of data set [5]: rat; cited from earlier work. This is another data set of the same source.
The conditions of data set [6]: rats; cited from earlier work. This is another data set of the same source.
For data set [7] the following is noted: rats; cited from earlier work. This is another data set of the same source.
The conditions of data set [8]: CREAE mice, model of multiple sclerosis; cited from earlier work.

For `O=C(CCCCCCc1ccccc1)c1ncc(-c2ccccn2)o1` [OL-135], the “analgesic activity in hot plate test” value in data set [1] is “analgesic activity”. In addition, in data set [2], the “inhibition of FAAH” value is listed as “potent inhibitor”. Further, in data set [3], the “analgesic activity in tail emersion test” value was “analgesic activity”.

Regarding `NC(=O)c1cccc(-c2cccc(OC(=O)NC3CCCCC3)c2)c1` [URB-597], the “efficacy in zero plus maze model of anxiety” value in data set [4] is listed as “efficacy”. The “analgesic activity in hot plate test” value in data set [1] is recorded as “analgesic efficacy”. The “analgesic efficacy in formalin test” value in data set [5] is reported as “analgesic efficacy”.

Regarding `Cc1nc(-c2ccccc2)c(-c2ccccc2)n1CCCCCCNC(=O)Oc1ccccc1F` [BMS-1], the “analgesic effect in Chung spinal nerve ligation model” value in data set [6] is listed as “analgesic effect”. The “analgesic effect in Hargraves test of acute thermal nociception” value in data set [7] was “analgesic effect”.

On to `CCCCCCCCCCCCCCCCS(=O)(=O)F` [AM374], for which, in data set [8], the reduction of spasticity result was “significantly reduce spasticity”.
